According to patent publication US7119105B2, “Methods for treating neurodegenerative disorders using aspartyl protease inhibitors” (The Regents of the University of California, priority 1997, dated 2006):
Where two headings read alike, the source gives them in different places. Blank lines part the entries; values can stand above or below the molecule they belong to.

Assays:
cathepsin D = cathepsin D (Homo sapiens, UniProt P07339); test: Cathepsin D cuvette assay for IC50 and inhibition constants (Ki); format: biochemical
Excerpt: Compounds capable of inhibiting cathepsin D can readily be identified using the assays described herein which measure a change in the hydrolysis of a peptide substrate. More particularly, a fluorometric high through-put assay for activity toward human liver cathepsin D (Calbiochem) can be used to screen the compounds of the present invention for their ability to inhibit cathepsin D. This assay was previously described by G. A. Kraft, et al., Methods Enzymol. 241, 70-86 (1994), the teachings of which are incorporated herein by reference. […] T. Baldwin, et al., Proc. Natl. Acad. […] Generally, the reactants are mixed, the reaction is allowed to proceed for a specific period of time and the fluorescence of the reaction products is monitored to determine the extent to which the peptide substrate has been cleaved. […] 241, 70-86 (1994). As such, following the methods of the present invention, compounds can be readily synthesized and screened to identify compounds that inhibit cathepsin D. [table]

human liver cathepsin D = target: T1, human liver cathepsin D (Homo sapiens, UniProt P07339); test: High-throughput fluorometric cathepsin D assay (library screen); format: biochemical; details: for inhibition at 0.33 µM: read-out: Inhibition of Cathepsin D in Library Screen; for inhibition at 0.1 µM: 100 nM inhibitor
T1 construct: human liver cathepsin D (Calbiochem); purchased Calbiochem; host or cells: human liver
Excerpt: Compounds capable of inhibiting cathepsin D can readily be identified using the assays described herein which measure a change in the hydrolysis of a peptide substrate. More particularly, a fluorometric high through-put assay for activity toward human liver cathepsin D (Calbiochem) can be used to screen the compounds of the present invention for their ability to inhibit cathepsin D. This assay was previously described by G. A. Kraft, et al., Methods Enzymol. 241, 70-86 (1994), the teachings of which are incorporated herein by reference. […] T. Baldwin, et al., Proc. Natl. Acad. Sci., U.S.A. 90, 6796-6800 (1993)). Generally, the reactants are mixed, the reaction is allowed to proceed for a specific period of time and the fluorescence of the reaction products is monitored to determine the extent to which the peptide substrate has been cleaved. […] 241, 70-86 (1994). As such, following the methods of the present invention, compounds can be readily synthesized and screened to identify compounds that inhibit cathepsin D. Briefly, a fluorometric high through-put assay for activity toward human liver cathepsin D (Calbiochem) was performed in 96-well microtiter plates (G. A. Krafft, et al., Methods Enymol. 241, 70-86 (1994)). […] T. Baldwin, et al., Proc. Natl. Acad. Sci., U.S.A. 90, 6796-6800 (1993)). The assay was performed in […] Microfluor fluorescence microtiter plates, and readings were taken on a Perkin-Elmer LS-50B with an attached 96-well plate reader. The excitation wavelength was 340 nm. A 340 nm interference filter (Hoya, U-340) for excitation and a 430 nm cut-off filter for emission were used. […] The fluorescent unit readings were taken at three time points within the linear region of the substrate cleavage, and percent activity of the enzyme was determined by comparing the change of fluorescent units (FU) for each well to the average change in FU for six control wells without inhibitor.

[1] = Table V second generation, conditions as Table IV
[2] = Table V second generation, conditions as Table IV, Ki ≈ IC50 − Et/2
[3] = Table VI, P1-varied 204 compound library, purified
[4] = 330 nM inhibitor, crude compound, approximate concentration
[5] = crude compound, approximate concentration
[6] = Table IV, substrate 2.5 μM, cathepsin D 10 nM, Ki ≈ IC50 − Et/2

Chain of cathepsin D (P07339 65-412): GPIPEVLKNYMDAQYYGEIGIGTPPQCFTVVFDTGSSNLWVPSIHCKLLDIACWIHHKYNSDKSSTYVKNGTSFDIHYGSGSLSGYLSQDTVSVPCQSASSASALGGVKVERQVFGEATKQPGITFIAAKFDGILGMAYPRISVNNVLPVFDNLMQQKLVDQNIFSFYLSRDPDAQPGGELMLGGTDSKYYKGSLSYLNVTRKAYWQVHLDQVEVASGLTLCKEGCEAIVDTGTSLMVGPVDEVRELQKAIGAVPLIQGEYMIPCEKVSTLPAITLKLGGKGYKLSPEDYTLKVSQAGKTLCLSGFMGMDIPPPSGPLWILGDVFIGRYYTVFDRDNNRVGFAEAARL
T1 sequence (P07339 169-412 limits assumed): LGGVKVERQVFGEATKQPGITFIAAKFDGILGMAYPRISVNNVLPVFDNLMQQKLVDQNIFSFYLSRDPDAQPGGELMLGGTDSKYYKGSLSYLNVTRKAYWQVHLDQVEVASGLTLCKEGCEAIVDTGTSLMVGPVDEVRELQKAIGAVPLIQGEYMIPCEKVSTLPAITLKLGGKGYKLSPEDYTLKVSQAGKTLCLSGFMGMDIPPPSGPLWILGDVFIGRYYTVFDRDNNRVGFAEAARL
T1 sequence (P07339 65-162 limits assumed): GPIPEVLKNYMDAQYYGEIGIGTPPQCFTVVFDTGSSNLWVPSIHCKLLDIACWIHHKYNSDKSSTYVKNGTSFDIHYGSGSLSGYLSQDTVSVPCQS

- IC50 (cathepsin D; [1]): 0.064 ± 0.006 µM
- Ki (cathepsin D; [2]): 0.059 µM
SMILES: COc1cc(Br)c(C(=O)N[C@@H](Cc2ccccc2)[C@@H](O)CN(CCc2ccc3c(c2)OCO3)C(=O)CCN2C(=O)c3ccccc3C2=O)cc1OC [EHS]

- Ki (cathepsin D; [3]): 0.0026 ± 0.0002 µM
SMILES: COc1cc(Br)c(C(=O)N[C@@H](Cc2ccc(-c3ccccc3)cc2)C(O)CN(CCc2ccc(Cl)cc2Cl)C(=O)CCN2C(=O)c3ccccc3C2=O)cc1OC (stereo partly drawn) [Obcf]

- Ki (cathepsin D; [3]): 0.0026 ± 0.0002 µM
SMILES: COc1cc(Br)c(C(=O)N[C@@H](Cc2ccc3ccccc3c2)[C@@H](O)CN(CCc2ccc(Cl)cc2Cl)C(=O)CCN2C(=O)c3ccccc3C2=O)cc1OC [Gbcf]

- inhibition at 0.33 µM (human liver cathepsin D; [4]): ≥ 50%
SMILES: O=C(CCn1c(=O)oc2ccccc21)N[C@@H](Cc1ccccc1)[C@@H](O)CN(CCc1ccc(Cl)cc1Cl)C(=O)CCc1ccc(Cl)c(Cl)c1 [FFA]

- inhibition at 0.33 µM (human liver cathepsin D; [4]): ≥ 50%
SMILES: COc1ccc(C(=O)N[C@@H](Cc2ccccc2)[C@@H](O)CN(CCc2ccc3c(c2)OCO3)C(=O)COc2c(Cl)cc(Cl)cc2Cl)c(Cl)c1OC [EAJ]

- inhibition at 0.33 µM (human liver cathepsin D; [4]): ≥ 50%
SMILES: COc1ccc(C(=O)N[C@@H](Cc2ccccc2)[C@@H](O)CN(CCc2ccc3c(c2)OCO3)C(=O)CCc2ccc(Cl)c(Cl)c2)c(Cl)c1OC [EFJ]

- inhibition at 0.1 µM (human liver cathepsin D; [5]): ≥ 50%
- inhibition at 0.33 µM (human liver cathepsin D; [4]): ≥ 50%
- Ki (cathepsin D; [6]): 0.073 ± 0.009 µM
SMILES: O=C(COc1cc(Cl)c(Cl)cc1Cl)N[C@@H](Cc1ccccc1)[C@@H](O)CN(CCc1ccc2c(c1)OCO2)C(=O)CCN1C(=O)c2ccccc2C1=O [EHD]

- IC50 (cathepsin D; [1]): 0.229 ± 0.044 µM
- Ki (cathepsin D; [2]): 0.224 µM
SMILES: Cc1ccc(CCN(C[C@H](O)[C@H](Cc2ccccc2)NC(=O)COc2cc(Cl)c(Cl)cc2Cl)C(=O)CCN2C(=O)c3ccccc3C2=O)cc1 [UHD]

- inhibition at 0.33 µM (human liver cathepsin D; [4]): ≥ 50%
SMILES: O=C(CCc1ccc2c(c1)OCO2)N[C@@H](Cc1ccccc1)[C@@H](O)CN(CCc1ccc2c(c1)OCO2)C(=O)CCc1ccc(Cl)c(Cl)c1 [EFI]

- inhibition at 0.33 µM (human liver cathepsin D; [4]): ≥ 50%
SMILES: COc1ccc(C(=O)N[C@@H](Cc2ccccc2)[C@@H](O)CN(CCc2ccc(Cl)cc2Cl)C(=O)CCN2C(=O)c3ccccc3C2=O)c(Cl)c1OC [FHJ]

- inhibition at 0.33 µM (human liver cathepsin D; [4]): ≥ 50%
SMILES: O=C(CCN1C(=O)c2ccccc2C1=O)N[C@@H](Cc1ccccc1)[C@@H](O)CN(CCc1ccc(Cl)cc1Cl)C(=O)CCc1ccc(Cl)c(Cl)c1 [FFH]

- inhibition at 0.33 µM (human liver cathepsin D; [4]): ≥ 50%
SMILES: O=C(CCN1C(=O)c2ccccc2C1=O)N[C@@H](Cc1ccccc1)[C@@H](O)CN(CCc1ccc2c(c1)OCO2)C(=O)CCc1ccc(Cl)c(Cl)c1 [EFH]

- IC50 (cathepsin D; [1]): 0.014 ± 0.002 µM
- Ki (cathepsin D; [2]): 0.009 µM
SMILES: O=C(COc1ccc(Cl)cc1Cl)N[C@@H](Cc1ccccc1)[C@@H](O)CN(CCc1ccc2c(c1)OCO2)C(=O)CCN1C(=O)c2ccccc2C1=O [EHM]

- inhibition at 0.33 µM (human liver cathepsin D; [4]): ≥ 50%
SMILES: O=C(COc1cc(Cl)c(Cl)cc1Cl)N[C@@H](Cc1ccccc1)[C@@H](O)CN(CCc1ccc2c(c1)OCO2)C(=O)CCc1ccc(Cl)c(Cl)c1 [EFD]

- inhibition at 0.33 µM (human liver cathepsin D; [4]): ≥ 50%
SMILES: O=C(N[C@@H](Cc1ccccc1)[C@@H](O)CN(CCc1ccc2c(c1)OCO2)C(=O)/C=C/c1cc2c(cc1Br)OCO2)c1ccc([N+](=O)[O-])cc1Cl [EEF]

- Ki (cathepsin D; [3]): 0.0067 ± 0.0007 µM
SMILES: COc1cc(Br)c(C(=O)N[C@@H](Cc2ccc(Br)cc2)[C@@H](O)CN(CCc2ccc(Cl)cc2Cl)C(=O)CCN2C(=O)c3ccccc3C2=O)cc1OC [Qbcf]

- inhibition at 0.1 µM (human liver cathepsin D; [5]): ≥ 50%
- inhibition at 0.33 µM (human liver cathepsin D; [4]): ≥ 50%
SMILES: O=C(CCc1ccc2c(c1)OCO2)N[C@@H](Cc1ccccc1)[C@@H](O)CN(CCc1ccc2c(c1)OCO2)C(=O)CCN1C(=O)c2ccccc2C1=O [EHI]

- inhibition at 0.33 µM (human liver cathepsin D; [4]): ≥ 50%
SMILES: O=C(CCn1c(=O)oc2ccccc21)N[C@@H](Cc1ccccc1)[C@@H](O)CN(CCc1ccc(Cl)cc1Cl)C(=O)COc1c(Cl)cc(Cl)cc1Cl [FAA]

- inhibition at 0.1 µM (human liver cathepsin D; [5]): ≥ 50%
- inhibition at 0.33 µM (human liver cathepsin D; [4]): ≥ 50%
- Ki (cathepsin D; [6]): 0.131 ± 0.012 µM
SMILES: O=C(CCn1c(=O)oc2ccccc21)N[C@@H](Cc1ccccc1)[C@@H](O)CN(CCc1ccc2c(c1)OCO2)C(=O)CCN1C(=O)c2ccccc2C1=O [EHA]

- inhibition at 0.1 µM (human liver cathepsin D; [5]): ≥ 50%
- inhibition at 0.33 µM (human liver cathepsin D; [4]): ≥ 50%
- Ki (cathepsin D; [6]): 0.231 ± 0.031 µM
SMILES: O=C(CCn1c(=O)oc2ccccc21)N[C@@H](Cc1ccccc1)[C@@H](O)CN(CCc1ccc(Cl)cc1Cl)C(=O)CCN1C(=O)c2ccccc2C1=O [FHA]

- Ki (cathepsin D; [3]): 0.0019 ± 0.0002 µM
SMILES: COc1cc(Br)c(C(=O)N[C@@H](Cc2cccc(Oc3ccccc3)c2)[C@@H](O)CN(CCc2ccc(Cl)cc2Cl)C(=O)CCN2C(=O)c3ccccc3C2=O)cc1OC [Kbcf]

- inhibition at 0.1 µM (human liver cathepsin D; [5]): ≥ 50%
- inhibition at 0.33 µM (human liver cathepsin D; [4]): ≥ 50%
- Ki (cathepsin D; [6]): 0.111 ± 0.008 µM
SMILES: COc1ccc(C(=O)N[C@@H](Cc2ccccc2)[C@@H](O)CN(CCc2ccc3c(c2)OCO3)C(=O)CCN2C(=O)c3ccccc3C2=O)c(Cl)c1OC [EHJ]

- inhibition at 0.33 µM (human liver cathepsin D; [4]): ≥ 50%
SMILES: O=C(CCN1C(=O)c2ccccc2C1=O)N[C@@H](Cc1ccccc1)[C@@H](O)CN(CCc1ccc2c(c1)OCO2)C(=O)CCN1C(=O)c2ccccc2C1=O [EHH]

- inhibition at 0.33 µM (human liver cathepsin D; [4]): ≥ 50%
SMILES: O=C(N[C@@H](Cc1ccccc1)[C@@H](O)CN(CCc1ccc(Cl)cc1Cl)C(=O)CCN1C(=O)c2ccccc2C1=O)c1ccc([N+](=O)[O-])cc1Cl [FHF]

- IC50 (cathepsin D; [1]): 0.018 ± 0.002 µM
- Ki (cathepsin D; [2]): 0.014 µM
SMILES: O=C(COc1ccc(Cl)c(Cl)c1)N[C@@H](Cc1ccccc1)[C@@H](O)CN(CCc1ccc(Cl)cc1Cl)C(=O)CCN1C(=O)c2ccccc2C1=O [FHO]

- inhibition at 0.1 µM (human liver cathepsin D; [5]): ≥ 50%
- inhibition at 0.33 µM (human liver cathepsin D; [4]): ≥ 50%
- Ki (cathepsin D; [6]): 0.171 ± 0.025 µM
SMILES: O=C(CCn1c(=O)oc2ccccc21)N[C@@H](Cc1ccccc1)[C@@H](O)CN(CCc1ccc2c(c1)OCO2)C(=O)CCc1ccc(Cl)c(Cl)c1 [EFA]

- inhibition at 0.33 µM (human liver cathepsin D; [4]): ≥ 50%
SMILES: O=C(/C=C/c1c(Cl)cccc1Cl)N[C@@H](Cc1ccccc1)[C@@H](O)CN(CCc1ccc2c(c1)OCO2)C(=O)CCN1C(=O)c2ccccc2C1=O [EHB]

- inhibition at 0.33 µM (human liver cathepsin D; [4]): ≥ 50%
SMILES: COc1ccc(C(=O)N[C@@H](Cc2ccccc2)[C@@H](O)CN(CCc2ccc3c(c2)OCO3)C(=O)/C=C/c2c(Cl)cccc2Cl)c(Cl)c1OC [EGJ]

SMILES: O=C(N[C@@H](Cc1ccccc1)[C@@H](O)CN(CCc1ccc2c(c1)OCO2)C(=O)CCN1C(=O)c2ccccc2C1=O)c1ccc([N+](=O)[O-])cc1Cl [EHF]
- inhibition at 0.33 µM (human liver cathepsin D): ≥ 50%

- inhibition at 0.1 µM (human liver cathepsin D; [5]): ≥ 50%
- inhibition at 0.33 µM (human liver cathepsin D; [4]): ≥ 50%
SMILES: O=C(CCn1c(=O)oc2ccccc21)N[C@@H](Cc1ccccc1)[C@@H](O)CN(CCc1ccc2c(c1)OCO2)C(=O)COc1c(Cl)cc(Cl)cc1Cl [EAA]

- inhibition at 0.33 µM (human liver cathepsin D; [4]): ≥ 50%
SMILES: O=C(CCN1C(=O)c2ccccc2C1=O)N[C@@H](Cc1ccccc1)[C@@H](O)CN(CCc1ccc(Cl)cc1Cl)C(=O)COc1c(Cl)cc(Cl)cc1Cl [FAH]

- IC50 (cathepsin D; [1]): 0.019 ± 0.002 µM
- Ki (cathepsin D; [2]): 0.015 µM
SMILES: O=C(COc1ccc(Cl)c(Cl)c1)N[C@@H](Cc1ccccc1)[C@@H](O)CN(CCc1ccc2c(c1)OCO2)C(=O)CCN1C(=O)c2ccccc2C1=O [EHO]

- IC50 (cathepsin D; [1]): 0.02 ± 0.002 µM
- Ki (cathepsin D; [2]): 0.015 µM
SMILES: O=C(COc1cccc(Cl)c1)N[C@@H](Cc1ccccc1)[C@@H](O)CN(CCc1ccc2c(c1)OCO2)C(=O)CCN1C(=O)c2ccccc2C1=O [EHR]
